Measured values: US20260373283A1, “LIPID NANOPARTICLES AND METHODS OF USING THE SAME FOR TREATING CELL PROLIFERATIVE DISEASES AND DISORDERS” (Northwestern University, priority 2022, published 2026)

Legend:
[1] = test system: CT-2A glioma; test: survival with Stupp treatment (RT plus TMZ); type: in vivo, mouse; conditions: RT+TMZ (3 Gy×3; TMZ 50 mg/kg×3 i.p.); control 27.5 days
Protocol: FIG. 15. B-LNP treatment improves antitumor effects of RT plus concomitant adjuvant TMZ in GBM-bearing mice. Survival curves of C57 mice received intracranial implantation of 5×10^4 CT-2A cells and two administrations of saline, B-LNP/diABZI (0.25 mg/kg diABZI), or a combination of free diABZI and therapeutic antibodies (αPD-L1+αCD47) (referred to as cocktails) through implanted cannula. Selected groups of mice also received RT (3 Gy×3) plus TMZ through intraperitoneal injection (50 mg/kg×3). n=7-10 mice per group. **, p<0.01; determined by Log-rank test for groups with proportional hazards and Renyi statistics for groups with crossing hazards. p values were adjusted by Bonferroni correction.
In vivo B-LNP/diABZI combined with Stupp treatment. C57BL/6 mice with intracranially implanted CT-2A (5×10^4 cells per mouse) were randomly grouped and received a daily dose of brain-focused irradiation at 3 Gy and TMZ at 50 mg per kg intraperitoneally for three consecutive days starting on the seventh day after tumor cell implantation. Certain groups of mice also received B-LNP/diABZI (0.25 mg diABZI per kg) or a combination of free diABZI and therapeutic antibodies (αPD-L1+αCD47) on the ninth and thirteenth day after tumor implantation through intracranially implanted cannula. All mice were followed for their survival following outlined endpoint protocols.

[2] = test system: CT-2A glioma; test: survival, CT-2A-bearing mice, systemic delivery with RT; type: in vivo, mouse; conditions: i.v. 2.5 mg/kg diABZI with fractionated RT
Protocol: FIGS. 6A-6F. Systemic nanoparticle delivery of diABZI potentiates anti-glioma effects of RT. FIGS. 6A-6E, C57 mice received intracranial implantation of 7.5×10^4 CT-2A cells and three administrations of saline, free diABZI, or P-LNP/diABZI (2.5 mg/kg diABZI) through intravenous injections. Selected groups of mice received RT (3 Gy×3) as monotherapy or combination therapy. FIG. 6A, Survival curves of CT-2A-bearing C57 mice received different treatments. n=6-7 mice per group. Survival curves were compared using Log-rank test for those with proportional hazards and Renyi statistics for those with crossing hazards with p values adjusted by Bonferroni correction. […] Tumor burden in control and LTS mice were evaluated through H&E staining. FIG. 6C, 100 d post-rechallenge, freshly dissected brains from LTS, age-matched tumor-bearing mice, and age-matched non-tumor control mice were analyzed by flow cytometry for immune composition and CD8^+ T cell phenotypes. Data are represented as mean±SEM; n=5. *, p<0.05; **, p<0.01; determined by Student's t-test. […] FIG. 6D, Histology of the brains was evaluated by H. E. staining. […] FIG. 6E, Freshly dissected brains were analyzed by flow cytometry for immune composition, TAMC, and CD8^+ T cell phenotypes. Data are represented as mean±SEM; n=5. **, p<0.01; ***, p<0.001; ****, p<0.0001; determined by Student's t-test. […]

[3] = test system: TAMCs; test: ARG1, CD206, CD86 expression in TAMCs by flow cytometry; type: cell-based, mouse; conditions: 24 h post-treatment
Protocol: (§1) BMDM, bone marrow-derived macrophage. […] FIG. 10E, Cytotoxicity of diABZI to T cells was tested by Annexin V staining using flow cytometry 48 h after treatment with diABZI at 200 nM.
(§2) In vitro analysis of diABZI effects on TAMC and T cell. In vitro generated TAMCs (1×10^6 cells/well) in 6-well plate were treated with diABZI at 200 nM. After 6 h of treatment, cells were washed and collected for RNA isolation using the RNEasy Plus Mini Kit (Qiagen). Total RNA was quantified by Nanodrop (Thermo Scientific), and cDNA was synthesized using the iScript cDNA synthesis kit (Bio-Rad). Gene expression was analyzed by quantitative PCR analysis (Bio-Rad). Alternatively, flow cytometric analysis was performed 24 h after treatment. To determine the cytotoxicity of diABZI to T cells, T cells were isolated using mouse T cell isolation kit (STEMCELL Technologies) and seeded at 2×10^5 cells/well in 96-well U bottom plates with the addition of Dynabeads mouse T cell activator CD3/CD28 (Fisher) and IL-2 (PeproTech) at 50 U/ml. Cells were treated with diABZI at 200 nM for 48 h and collected for annexin V assay (BioLegend) using flow cytometry.

[4] = test system: T cells; test: cytotoxicity to T cells by Annexin V staining; type: cell-based, mouse; conditions: 200 nM, 48 h
Protocol: as §1, §2

[5] = test system: TAMCs; test: pro-inflammatory gene expression in TAMCs by qPCR; type: cell-based, mouse; conditions: diABZI 200 nM, 6 h
Protocol: as §2

[6] = test system: CD8+ T cells in CT-2A tumors; test: T cell infiltration to brain tumors after systemic delivery; type: in vivo, mouse; conditions: i.v. 2.5 mg/kg diABZI with fractionated RT
Protocol: FIG. 16. Systemic nanoparticle delivery of diABZI enhances T cell infiltration to brain tumors. C57 mice received intracranial implantation of 7.5×10^4 CT-2A cells, RT (3 Gy×3), and two administrations of saline, free diABZI, or P-LNP/diABZI (2.5 mg/kg diABZI) through intravenous injections. Freshly dissected brains were analyzed by flow cytometry for T cell infiltration. Data are represented as mean±SEM; n=5. *, p<0.05; **, p<0.01; determined by determined by one-way ANOVA with Tukey's multiple comparisons test.
In vivo nanoparticle treatment through systemic delivery. C57BL/6 mice with intracranially implanted CT-2A (7.5×10^4 cells per mouse) were randomly grouped and treated with saline or P-LNP/diABZI (2.5 mg diABZI per kg) through intravenous administration on the ninth, fourteenth, and nineteenth day after tumor implantation. Selected groups of mice also received brain-focused radiotherapy for three consecutive days starting on the sixth day post-tumor implantation. […] Tumor burden was analyzed by hematoxylin and eosin (H&E) staining. Therapeutic effects of P-LNP/diABZI was similarly evaluated in mice implanted with PF8 cells (7.5×10^4 cells per mouse) and received RT and intravenous administrations of saline or P-LNP/diABZI (2.5 mg diABZI per kg) on the eighth and thirteenth day after tumor implantation.

| Structure (SMILES) | median survival [1] | animal survival in CT-2A glioma model [2] | ARG1 and CD206 in TAMCs [3] | CD86 in TAMCs [3] | cytotoxicity to T cells [4] | expression of pro-inflammatory genes in TAMCs (type I IFNs, CCL5, CXCL10) [5] | CD8+ T cell tumor infiltration [6] |
| --- | --- | --- | --- | --- | --- | --- | --- |
| Cn1nnc2c(C(N)=O)ncn2c1=O [TMZ, temozolomide] | 36 days |  |  |  |  |  |  |
| CCn1nc(C)cc1C(=O)Nc1nc2cc(C(N)=O)cc(OC)c2n1C/C=C/Cn1c(NC(=O)c2cc(C)nn2CC)nc2cc(C(N)=O)cc(OCCCN3CCOCC3)c21 [diABZI] |  | not free drugs, led to a dramatically enhanced CD8^+ T cell tumor infiltration (FIG. 16) and animal survival | reduced levels of immunosuppressive factors ARG1 and CD206 | higher levels of activation factor CD86 | causes cytotoxicity to T cells | dramatically increased expression of pro-inflammatory genes in TAMCs | not free drugs, led to a dramatically enhanced CD8^+ T cell tumor infiltration |
